Results reported in EP4775582A1, “MACROCYCLIC COMPOUND AND ANTIBODY-DRUG CONJUGATE THEREOF” (Genfleet Therapeutics (Shanghai) Inc., priority 2023, dated 2025).
pIC50: −log10 of the molar value. ≈ marks a conversion by molar mass, not a printed value. Where two headings read alike, the source gives them in different places.

Experiments:
[1] = Human liver microsomal stability experiment; format: in vitro ADME; conditions: human liver microsomes; for CLint scaled: 45 mg/g, 20.7 g/kg scaling
Protocol: This experiment was intended to investigate the metabolic stability of the test compounds in human liver microsomes. The materials used in the experiment included 10 mM solutions of the test compounds and the control sample, human liver microsomes, and reduced nicotinamide adenine dinucleotide phosphate (NADPH) powder. In the experiment, a 100 mM potassium phosphate buffer was used as the buffer system.
The liver microsome working solution was prepared by diluting the liver microsome stock solution to 0.75 mg/mL using the 100 mM potassium phosphate buffer. Then, 5 µL of the 10 mM stock solution of the test compound was taken, and 195 µL of methanol was added. The mixture was well mixed to prepare a working solution A with a concentration of 0.25 mM. Subsequently, the working solution A was diluted to 1.5 µM using the liver microsome working solution to prepare a compound-liver microsome mixed solution. Additionally, NADPH powder was dissolved in 100 mM potassium phosphate buffer to prepare a 6 mM NADPH solution. The compound-liver microsome mixed solution was dispensed into a 96-well plate at 30 µL/well, with labeled time points of 0 min, 30 min, and 60 min. For 0-min samples, 180 µL of acetonitrile containing 100 ng/mL tolbutamide and 15 µL of the NADPH solution were added directly. The 96-well plate and the NADPH solution were then preheated under a 37 °C water bath for 5 min. After the preheating, 15 µL of the NADPH solution was added to each of the 30-min and 60-min sample wells. The plate was gently shaken for mixing and then incubated under the 37 °C water bath for the corresponding time. After the incubation was completed, 180 µL of acetonitrile containing 100 ng/mL tolbutamide was added to each sample well. The plate was sealed with a sealing film, shaken for 10 min (800 rpm/min), and then centrifuged for 15 min (4000 rpm). After the centrifugation, 50 µL of the supernatant was taken and added to a 96-well plate containing 150 µL of deionized water, and then the plate was sealed and shaken for 10 min (800 rpm) for uniform mixing. Subsequently, sample analysis was performed using liquid chromatography-tandem mass spectrometry (LC-MS/MS). […] For humans, the microsome protein-to-liver weight ratio was 45 mg/g, and the liver-to-body weight ratio was 20.7 g/kg.

KRAS WT-cRAF = KRAS WT-cRAF (Homo sapiens, UniProt P01116+P62937); assay: Assay for binding of KRAS to cRAF (HTRF, with Cyclophilin A), KRAS WT; conditions: for pIC50: read-out: KRAS WT-cRAF binding assay, GPPNP-KRAS WT, IC50 values; for IC50: KRAS WT-cRAF binding assay(nM), GPPNP-KRAS WT, IC50 values
KRAS WT-cRAF, sequence (P01116 1-188 isoform P01116-2): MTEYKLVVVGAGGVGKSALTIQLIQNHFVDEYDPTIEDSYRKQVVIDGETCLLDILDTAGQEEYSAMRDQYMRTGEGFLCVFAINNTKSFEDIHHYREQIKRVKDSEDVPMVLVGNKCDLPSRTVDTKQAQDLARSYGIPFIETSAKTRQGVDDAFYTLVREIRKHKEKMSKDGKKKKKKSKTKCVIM
KRAS WT-cRAF, sequence (P62937 whole entry): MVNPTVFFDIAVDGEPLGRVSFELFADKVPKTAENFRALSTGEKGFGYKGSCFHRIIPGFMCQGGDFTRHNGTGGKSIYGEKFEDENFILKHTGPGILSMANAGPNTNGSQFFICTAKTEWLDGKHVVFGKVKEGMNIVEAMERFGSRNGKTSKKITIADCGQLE
Protocol: (§3) The plate was centrifuged at 1000 rpm for 1 min and then incubated in the thermostatic incubator at 20 °C for 30 min. […] The plate was centrifuged at 1000 rpm for 1 min and then incubated in the thermostatic incubator at 20 °C for 60 min. […] The working solution was added to the aforementioned assay plate at 5 µL/well. The plate was centrifuged at 1000 rpm for 1 min and then incubated in the thermostatic incubator at 20 °C for 60 min.

KRAS G12V-cRAF = KRAS G12V-cRAF (Homo sapiens, UniProt P01116+P62937, G12V); assay: Assay for binding of KRAS to cRAF (HTRF, with Cyclophilin A), KRAS G12V; conditions: for pIC50: read-out: KRAS G12V-cRAF binding assay, GPPNP-KRAS G12V, IC50 values; for IC50: KRAS G12V-cRAF binding assay(nM), GPPNP-KRAS G12V, IC50 values
KRAS G12V-cRAF, sequence (P01116 1-188 isoform P01116-2 G12V): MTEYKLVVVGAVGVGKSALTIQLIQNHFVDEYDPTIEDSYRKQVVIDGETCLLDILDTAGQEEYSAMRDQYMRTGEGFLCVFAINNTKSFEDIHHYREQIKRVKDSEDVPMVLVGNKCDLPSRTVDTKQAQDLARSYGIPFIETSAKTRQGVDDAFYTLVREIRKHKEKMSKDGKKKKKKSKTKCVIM
KRAS G12V-cRAF, sequence (P62937 whole entry): as the sequence (P62937 whole entry) above
Protocol: as §3

H441 p-ERK = assay: Cell p-ERK assay (HTRF), NCI-H441 cells; format: cell-based, human; conditions: NCI-H441 cells (KRAS G12V), 3 h incubation
How it was run: (§1)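 AsPC-1 (10000/well) or NCI-H441 (20000/well) cells were seeded overnight and then exposed to compound for 3 h at 37 °C. Lysates were probed for ERK phospho-T202/Y204 by HTRF with a 4-hour antibody incubation. IC50 values came from four-parameter fits of inhibition against log concentration.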

AsPC-1 p-ERK = assay: Cell p-ERK assay (HTRF), AsPC-1 cells; format: cell-based, human; conditions: AsPC-1 cells (KRAS G12D), 3 h incubation, read-out: AsPC-1 p-ERK IC50
How it was run: as §1

NCI-H441 cells = assay: 3D cell proliferation assay (CellTiter Glo-3D), NCI-H441; format: cell-based, human; conditions: NCI-H441 cells (KRAS G12V), 2% FBS, 5 days, read-out: H441 AP IC50
How it was run: (§2)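 Cells seeded at 800 per well (AsPC-1, NCI-H441) in 2% FBS medium and incubated overnight at 37 °C, 5% CO2. Compounds added next day from 10× stock, then 5 days' further culture. Viability read by CellTiter-Glo luminescence; IC50 from four-parameter fit of inhibition versus log concentration.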

AsPC-1 cells = assay: 3D cell proliferation assay (CellTiter Glo-3D), AsPC-1; format: cell-based, human; conditions: AsPC-1 cells (KRAS G12D), 3D, 2% FBS, 5 days, read-out: AsPC-1 AP IC50
How it was run: as §2

[2] = Solubility experiment (HPLC, external standard); format: physicochemical; conditions: pH 7.4, pH 7.4 medium, 37 °C, 24 h
How it was run: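 Solid compound (about 1 mg per 1 mL medium) was shaken at 37 °C for 24 h in pH 1.2, 4.5 or 7.4 media, then centrifuged and the supernatant diluted with acetonitrile/water 50/50. Concentration in μg/mL was found by HPLC against an external standard prepared from a DMSO stock.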

SMILES	CLint scaled [1]	pIC50 (KRAS WT-cRAF)	pIC50 (KRAS G12V-cRAF)	pIC50 (H441 p-ERK; Homo sapiens)	pIC50 (AsPC-1 p-ERK; Homo sapiens, ASPC1)	pIC50 (NCI-H441 cells; Homo sapiens, 120 h)	pIC50 (AsPC-1 cells; Homo sapiens, ASPC1, 120 h)	IC50 (KRAS WT-cRAF)	IC50 (KRAS G12V-cRAF)	half-life ([1]; NADPH, 37 °C)	other results
CCn1c(-c2cc(C#CCN3CCC(C#N)(CN)CC3)cnc2[C@H](C)OC)c2c3cc(ccc31)-c1csc(n1)C[C@H](NC(=O)[C@H]1[C@H](C)[C@@H]1C)C(=O)N1CCC[C@H](N1)C(=O)OCC(C)(C)C2 (atropisomer, axis not shown; (Ra)) [Compound Z181, (1r,2R,3S)-N-((6^3S,4S,Z)-1^2-(Ra)-(5-(3-(4-(aminomethyl)-4-cyanopiperidin-1-yl)prop-1-yn-1-yl)-2-((S)-1-methoxyethyl)pyridin-3-yl)-1^1-ethyl-10,10-dimethyl-5,7-dioxo-6^1,6^2,6^3,6^4,6^5,6^6-hexahydro-1^1H-8-oxa-2(4,2)-thiazola-1(5,3)-indola-6(1,3)-pyridazinacycloundecaphan-4-yl)-2,3-dimethylcyclopropane-1-carboxamide]	36.9 mL/min/kg	7.44	7.88	–	–	–	–	–	–	43.4 min	–
CCn1c(-c2cc(C#CCN3CCC(C#N)CC3)cnc2[C@H](C)OC)c2c3cc(ccc31)-c1csc(n1)C[C@H](NC(=O)[C@H]1[C@H](C)[C@@H]1C)C(=O)N1CCC[C@H](N1)C(=O)OCC(C)(C)C2 (atropisomer, axis not shown; (Ra)) [Compound Z282, (1r,2R,3S)-N-((6^3S,4S,Z)-1^2-(5-(3-(4-cyanopiperidin-1-yl)prop-1-yn-1-yl)-(Ra)-2-((S)-1-methoxyethyl)pyridin-3-yl)-1^1-ethyl-10,10-dimethyl-5,7-dioxo-6^1,6^2,6^3,6^4,6^5,6^6-hexahydro-1^1H-8-oxa-2(4,2)-thiazola-1(5,3)-indola-6(1,3)-pyridazinacycloundecaphan-4-yl)-2,3-dimethylcyclopropane-1-carboxamide]	88.5 mL/min/kg	7.83	8.26	–	–	–	–	–	–	18.1 min	–
CCn1c(-c2cc(C#CCN3CCC(C#N)CC3)cnc2C(C)OC)c2c3cc(ccc31)-c1csc(n1)CC(NC(=O)C1C3COCC31)C(=O)N1CCCC(N1)C(=O)OCC(C)(C)C2 (atropisomer, axis not shown; (Ra)) [Compound Z56, (1R,5S,6r)-N-((6^3S,4S,Z)-(Ra)-1^2-(5-(3-(4-cyanopiperidin-1-yl)prop-1-yn-1-yl)-2-((S)-1-methoxyethyl)-pyridin-3-yl)-1^1-ethyl-10,10-dimethyl-5,7-dioxo-6^1,6^2,6^3,6^4,6^5,6^6-hexahydro-1^1H-8-oxa-2(4,2)-thiazola-1(5,3)-indola-6(1,3)-pyridazinacycloundecaphane-4-yl)-3-oxabicyclo[3.1.0]hexane-6-carboxamide]	68.9 mL/min/kg	–	–	9.92	10.15	9.85	10.05	13.9 nM	11.9 nM	–	half-life at 1 µM ([1]; NADPH, 37 °C): 23.3 min
CCn1c(-c2cc(C#CCN3CCC(C#N)(CN)CC3)cnc2[C@H](C)OC)c2c3cc(ccc31)-c1csc(n1)C[C@H](NC(=O)[C@H]1[C@@H]3COC[C@@H]31)C(=O)N1CCC[C@H](N1)C(=O)OCC(C)(C)C2 (atropisomer, axis not shown; (Ra)) [Compound Z52, (1R,5S,6r)-N-((6^3S,4S,Z)-(Ra)-1^2-(5-(3-(4-(aminomethyl)-4-cyanopiperidin-1-yl)prop-1-yn-1-yl)-2-((S)-1-methoxyethyl)-pyridin-3-yl)-1^1-ethyl-10,10-dimethyl-5,7-dioxo-6^1,6^2,6^3,6^4,6^5,6^6-hexahydro-1^1H-8-oxa-2(4,2)-thiazola-1(5,3)-indola-6(1,3)-pyridazinacycloundecaphane-4-yl)-3-oxabicyclo[3.1.0]hexane-6-carboxamide]	–	7.78	7.88	–	–	–	–	–	–	–	pIC50 (H441 p-ERK): 9.89; pIC50 (AsPC-1 p-ERK): 10.22; pIC50 (NCI-H441 cells): 9.77; pIC50 (AsPC-1 cells): 10.10; T1/2 ([1]; NADPH, 37 °C): 47.3 min
CCn1c(-c2cc(C#CCN3CCN(C(=O)CN)CC3)cnc2C(C)OC)c2c3cc(ccc31)-c1csc(n1)CC(NC(=O)C1C3COCC31)C(=O)N1CCCC(N1)C(=O)OCC(C)(C)C2 (atropisomer, axis not shown; (Ra)) [Compound Z47, (1R,5S,6r)-N-((6^3S,4S,Z)-1^1-ethyl-(Ra)-1^2-(5-(3-(4-glycylpiperazin-1-yl)prop-1-yn-1-yl)-2-((S)-1-methoxyethyl)pyridin-3-yl)-10,10-dimethyl-5,7-dioxo-6^1,6^2,6^3,6^4,6^5,6^6-hexahydro-1^1H-8-oxa-2(4,2)-thiazola-1(5,3)-indola-6(1,3)-pyridazinacycloundecaphane-4-yl)-3-oxabicyclo[3.1.0]hexane-6-carboxamide]	–	–	–	9.24	8.63	9.12	8.92	34.4 nM	19.3 nM	–	solubility at 24 h ([2]; pH 7.4 medium): 109 µg/mL (≈ 118 µM)
CCn1c(-c2cc(C#CCN3CCC(C#N)(CN)CC3)cnc2[C@H](C)OC)c2c3cc(ccc31)-c1coc(n1)C[C@H](NC(=O)[C@H]1[C@H](C)[C@@H]1C)C(=O)N1CCC[C@H](N1)C(=O)OCC(C)(C)C2 (atropisomer, axis not shown; (Ra)) [Compound Z182]	97.9 mL/min/kg	7.46	7.89	–	–	–	–	–	–	16.4 min	–

Now from value to compound, other results behind:

CLint scaled [1]	pIC50 (KRAS WT-cRAF)	pIC50 (KRAS G12V-cRAF)	pIC50 (H441 p-ERK; Homo sapiens)	pIC50 (AsPC-1 p-ERK; Homo sapiens, ASPC1)	pIC50 (NCI-H441 cells; Homo sapiens, 120 h)	pIC50 (AsPC-1 cells; Homo sapiens, ASPC1, 120 h)	IC50 (KRAS WT-cRAF)	IC50 (KRAS G12V-cRAF)	SMILES	half-life ([1]; NADPH, 37 °C)	other results
52.9 mL/min/kg	–	–	9.68	9.96	10.00	9.82	27.7 nM	12.3 nM	CCn1c(-c2cc(C#CCN3CCC(O)CC3)cnc2C(C)OC)c2c3cc(ccc31)-c1csc(n1)CC(NC(=O)C1C(C)C1C)C(=O)N1CCCC(N1)C(=O)OCC(C)(C)C2 (atropisomer, axis not shown; (Ra)) [Compound Z11, (1r,2R,3S)-N-((6^3S,4S,Z)-1^1-ethyl-(Ra)-1^2-(5-(3-(4-hydroxypiperidin-1-yl)prop-1-yn-1-yl)-2-((S)-1-methoxyethyl)pyridin-3-yl)-10,10-dimethyl-5,7-dioxo-6^1,6^2,6^3,6^4,6^5,6^6-hexahydro-1^1H-8-oxa-2(4,2)-thiazola-1(5,3)-indola-6(1,3)-pyridazinacycloundecaphane-4-yl)-2,3-dimethylcyclopropane-1-carboxamide]	–	half-life at 1 µM ([1]; NADPH, 37 °C): 30.3 min
164 mL/min/kg	7.31	7.96	–	–	–	–	–	–	CCn1c(-c2cc(C#CCN3CCN(C(C)=O)CC3)cnc2[C@H](C)OC)c2c3cc(ccc31)-c1csc(n1)C[C@H](NC(=O)[C@H]1[C@H](C)[C@@H]1C)C(=O)N1CCC[C@H](N1)C(=O)OCC(C)(C)C2 (atropisomer, axis not shown) [Control compound 2]	9.8 min	solubility at 24 h ([2]; ph 7.4 medium): 1.5 µg/mL (≈ 1.68 µM)
